Columns and labels:
Assay in all cases: relative viability (nuclei count vs DMSO), 5 days (fraction); higher = more cells survive
PAC-1 + Trametinib = compound: C=CCc1cccc(/C=N/NC(=O)CN2CCN(Cc3ccccc3)CC2)c1O [PAC-1] + CC(=O)Nc1cccc(-n2c(=O)n(C3CC3)c(=O)c3c(Nc4ccc(I)cc4F)n(C)c(=O)c(C)c32)c1 [Trametinib] (partner 0.02 µM)
Outline: (§1)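 Lung cancer cell lines were pin-tool dosed in 1536-well plates on the day after seeding, with either a lone drug or a fixed anchor-drug dose plus five library-drug doses (not always all listed) in √10 steps. Nuclei were counted on 4× images after 5 days. Relative viability is the ratio of treated-well to vehicle-well nuclei counts, with each value a median of duplicate plates.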

Ibrutinib + OSI-027 = compound: C=CC(=O)N1CCC[C@@H](n2nc(-c3ccc(Oc4ccccc4)cc3)c3c(N)ncnc32)C1 [Ibrutinib] + COc1cccc2cc(-c3nc([C@H]4CC[C@H](C(=O)O)CC4)n4ncnc(N)c34)[nH]c12 [OSI-027] (partner 0.5 µM)
Outline: as §1

BMX-IN-1 + Tozasertib = compound: C=CC(=O)Nc1cc(-n2c(=O)ccc3cnc4ccc(-c5ccc(NS(C)(=O)=O)cc5)cc4c32)ccc1C [BMX-IN-1] + Cc1cc(Nc2cc(N3CCN(C)CC3)nc(Sc3ccc(NC(=O)C4CC4)cc3)n2)n[nH]1 [Tozasertib] (partner 0.1 µM)
Outline: as §1

Ibrutinib + Navitoclax = compound: C=CC(=O)N1CCC[C@@H](n2nc(-c3ccc(Oc4ccccc4)cc3)c3c(N)ncnc32)C1 [Ibrutinib] + CC1(C)CCC(c2ccc(Cl)cc2)=C(CN2CCN(c3ccc(C(=O)NS(=O)(=O)c4ccc(N[C@H](CCN5CCOCC5)CSc5ccccc5)c(S(=O)(=O)C(F)(F)F)c4)cc3)CC2)C1 [Navitoclax] (partner 0.5 µM)
Outline: as §1

SK-MES-1
relative viability (PAC-1 + Trametinib; first compound 0.02 µM): 0.498
relative viability (PAC-1 + Trametinib; first compound 0.06325 µM): 0.529
relative viability (PAC-1 + Trametinib; first compound 0.2 µM): 0.543
relative viability (PAC-1 + Trametinib; first compound 2 µM): 0.622
relative viability (Ibrutinib + OSI-027; first compound 0.005 µM): 0.584
relative viability (Ibrutinib + OSI-027; first compound 0.01581 µM): 0.568
relative viability (Ibrutinib + OSI-027; first compound 0.05 µM): 0.584
relative viability (Ibrutinib + OSI-027; first compound 0.1581 µM): 0.687
relative viability (Ibrutinib + OSI-027; first compound 0.5 µM): 0.357
relative viability (BMX-IN-1 + Tozasertib; first compound 0.02 µM): 1.12
relative viability (BMX-IN-1 + Tozasertib; first compound 0.2 µM): 1.15
relative viability (BMX-IN-1 + Tozasertib; first compound 0.6325 µM): 1.07
relative viability (BMX-IN-1 + Tozasertib; first compound 2 µM): 0.884
relative viability (Ibrutinib + Navitoclax; first compound 0.005 µM): 1.19
relative viability (Ibrutinib + Navitoclax; first compound 0.01581 µM): 1.2
relative viability (Ibrutinib + Navitoclax; first compound 0.05 µM): 1.34
relative viability (Ibrutinib + Navitoclax; first compound 0.1581 µM): 1.32
relative viability (Ibrutinib + Navitoclax; first compound 0.5 µM): 0.723
